In publication PMC12045974, “T cell toxicity induced by tigecycline binding to the mitochondrial ribosome” (Nature Communications, 2025):
Values joined by “and” are separate entries in the source; they are usually repeats but may differ in a detail not shown here. Equal entries are not always repeated.

What was measured:
[1] = system: CD4+ T cell subsets (Tn, Tcm, Tem); assay: Proliferation of FACS-isolated naive, central memory and effector memory CD4+ T cells; assay type: cell-based, human
Procedure: Thawed PBMCs were washed with RPMI complemented with 10% FBS, 2.05 mM L-glutamine (Sigma), and 55 μM 2-ME (Gibco) before resting at 37 °C (5% CO2) for 30 min. After counting, cells were resuspended in FACS buffer at a density of 5 × 10^7 cells/ml. CD4^+ T cells were isolated using CD4^+ T cell negative isolation kits (Miltenyi Biotech) and enriched using CD4^+ T cell Enrichment kits (Miltenyi Biotech). Purified CD4^+ T cells were counted and stained with CTV dye and live/dead dye. Subsequently, surface makers were stained at 4 °C in FACS buffer (DPBS + 2% FBS). The following panels were used to classify human T CD4^+ cells from the live lymphocyte gate: naïve CD4^+ T cells: Aqua^-CD4^+CD45RA^+CD27^+; central memory CD4^+ T cells: Aqua^-CD4^+CD45RA^-CD27^+, effector memory CD4^+ T cells: Aqua^-CD4^+CD45RA^-CD27^-. After staining, cells were washed, resuspended and sorted using a FACSAria Fusion (BD Biosciences). Sorted cells were collected into PBS complemented with 2% FBS at 4 °C. Cells were then harvested via centrifugation and resuspended in RPMI-1640 ( + 10% FBS, 2.05 mM L-glutamine (Sigma), and 55 μM 2-ME (Gibco) before counting. Sorted CD4^+ subsets were counted and 85,000 cells per well seeded onto 96-well U-bottom plates with/without Human T-Activator CD3/CD28 beads (Invitrogen) at a 1:2.8 cell:bead ratio and 10 ng/ml IL-2 (Proteintech) in RPMI-1640 ( + 10% FBS, 2.05 mM L-glutamine (Sigma), and 55 μM 2-ME (Gibco). At the same time, tigecycline in serial concentrations (from 2.5 to 10 μM) was added. A half medium change took place after 3 days, and cells were harvested after 6 days for flow cytometry. Antibodies used in the study are presented in Supplementary Table 2.

[2] = system: mitochondrial translation in CD4+ and CD8+ T cells; assay: Mito-FUNCAT-FACS assay of mitochondrial translation on activated T cells; assay type: cell-based, human; conditions: for mitochondrial translation (fold change relative to negative control): per PBMC donor
Procedure: Thawed PBMCs were washed with RPMI ( + 10% FBS, 2.05 mM L-glutamine (Sigma), and 55 μM 2-ME (Gibco)) before resting at 37 °C (5% CO2) for 30 min. After counting, cells were resuspended in FACS buffer at a density of 5 × 10^7 cells/ml. T cells were isolated using EasySep™ Human T Cell Isolation Kit (Stemcell Technologies). Purified T cells were counted and 85,000 cells per well seeded onto 96-well U-bottom plates with/without Human T-Activator CD3/CD28 beads (Invitrogen) at a 1:2.8 cell:bead ratio and 10 ng/ml IL-2 (Proteintech) in RPMI-1640 ( + 10% FBS, 2.05 mM L-glutamine (Sigma), and 55 μM 2-ME (Gibco)) for 48 h. To assess mitochondrial translation, activated T cells were washed twice with methionine/cysteine/pyruvate-free DMEM and incubated in methionine-depletion medium (DMEM supplemented with 10% dialyzed FBS, 1× GlutaMAX, 1× sodium pyruvate, and 0.2 mM L-cystine) for 30 min at 37 °C. To inhibit cytosolic translation, anisomycin (100 μg/mL) was added to the medium. For mitochondrial translation inhibition, 100 µg/mL chloramphenicol (309 μM, positive control) or tigecycline (2.5−10 μM) were added to the medium. Cells were then labeled with 50 μM L-homopropargylglycine (HPG) for 3 h at 37 °C, during which time the medium still contained antibiotics.
Following HPG labeling, cells were collected and stained with surface markers (CD4, CD8). Cells were pre-permeabilized with 0.005% digitonin in mitochondria-protective buffer (10 mM HEPES/KOH, 10 mM NaCl, 5 mM MgCl2, 300 mM sucrose, pH 7.5) for 3 min, fixed with 4% paraformaldehyde for 10 min, and fully permeabilized with 0.25% Triton X-100 for 5 min. After blocking with 5% BSA for 10 min, incorporated HPG was detected via copper-catalyzed cycloaddition using 0.05 μM Alexa Fluor 488 picolyl azide (Click-iT™ Plus Alexa Fluor™ 488 Picolyl Azide Toolkit, Gibco) for 30 min at room temperature. Subsequently, the reaction cocktail was removed and cells resuspended in FACS buffer. Flow cytometry was carried out on a BD Celesta (BD Biosciences) and analyzed in FlowJo (TreeStar). Data are presented as fold change relative to negative controls.

SMILES: CN(C)c1cc(NC(=O)CNC(C)(C)C)c(O)c2c1C[C@H]1C[C@H]3[C@H](N(C)C)C(O)=C(C(N)=O)C(=O)[C@@]3(O)C(O)=C1C2=O [Tigecycline, tigecycline]
- proliferation of naive, central memory and effector memory CD4+ T cells ([1]; 10 μM, 6 days): significantly inhibited the proliferation of all subsets
- % Cells in each division ([1]; Naïve, 2.5μM, division number 0): 4.49% and 2.85% and 0.99%
- % Cells in each division ([1]; Naïve, 2.5μM, division number 2): 44.1% and 38.6% and 39.3%
- % Cells in each division ([1]; Naïve, 2.5μM, division number 5): 0.076% and 0.28% and 0.23%
- % Cells in each division ([1]; Naïve, 2.5μM, division number 6): 0.17% and 0.1% and 0.16%
- % Cells in each division ([1]; Naïve, 2.5μM, division number 7): 0.25% and 0.12%
- % Cells in each division ([1]; Naïve, 5μM, division number 0): 3.52% and 9.14% and 5.5%
- % Cells in each division ([1]; Naïve, 5μM, division number 1): 30.8% and 43.7% and 27.9%
- % Cells in each division ([1]; Naïve, 5μM, division number 2): 51%
- % Cells in each division ([1]; Naïve, 5μM, division number 5): 0.058% and 0.021% and 0.055%
- % Cells in each division ([1]; Naïve, 5μM, division number 6): 0.28% and 0.21% and 0.25%
- % Cells in each division ([1]; Naïve, 5μM, division number 7): 0.45% and 0.34% and 0.31%
- % Cells in each division ([1]; Naïve, 10μM, division number 0): 20.7% and 12.2% and 12.7%
- % Cells in each division ([1]; Naïve, 10μM, division number 1): 58.7% and 45.6% and 58.3%
- % Cells in each division ([1]; Naïve, 10μM, division number 2): 19.7% and 37.8% and 26.9%
- % Cells in each division ([1]; Naïve, 10μM, division number 5): 0% and 0.056% and 0.037%
- % Cells in each division ([1]; Naïve, 10μM, division number 6): 0.22% and 0.27% and 0.31%
- % Cells in each division ([1]; Naïve, 10μM, division number 7): 0.47% and 0.48% and 0.72%
- % Cells in each division ([1]; TCM, 2.5μM, division number 0): 11.5% and 6.18% and 6.94%
- % Cells in each division ([1]; TCM, 2.5μM, division number 1): 38% and 27.5% and 31.5%
- % Cells in each division ([1]; TCM, 2.5μM, division number 2): 33.5% and 37.9% and 38.1%
- % Cells in each division ([1]; TCM, 2.5μM, division number 5): 0.31% and 0.62% and 0.44%
- % Cells in each division ([1]; TCM, 2.5μM, division number 6): 0.5% and 0.64% and 0.43%
- % Cells in each division ([1]; TCM, 2.5μM, division number 7): 0.62% and 0.7%
- % Cells in each division ([1]; TCM, 5μM, division number 0): 31.4% and 19.3% and 18.6%
- % Cells in each division ([1]; TCM, 5μM, division number 1): 46.4% and 46.1% and 47.3%
- % Cells in each division ([1]; TCM, 5μM, division number 2): 17% and 26.2% and 27.6%
- % Cells in each division ([1]; TCM, 5μM, division number 5): 0.095% and 0.16% and 0.1%
- % Cells in each division ([1]; TCM, 5μM, division number 6): 0.58% and 0.85% and 0.47%
- % Cells in each division ([1]; TCM, 5μM, division number 7): 1.11% and 1.15% and 0.74%
- % Cells in each division ([1]; TCM, 10μM, division number 0): 51.5% and 35.3% and 35.1%
- % Cells in each division ([1]; TCM, 10μM, division number 1): 39.1% and 48.8% and 52.5%
- % Cells in each division ([1]; TCM, 10μM, division number 2): 6.84% and 12.8% and 10.7%
- % Cells in each division ([1]; TCM, 10μM, division number 5): 0.11% and 0.14% and 0.05%
- % Cells in each division ([1]; TCM, 10μM, division number 6): 0.69% and 0.83% and 0.56%
- % Cells in each division ([1]; TCM, 10μM, division number 7): 1.26% and 0.83%
- mitochondrial translation (fold change relative to negative control) ([2]; CD4, 2.5µM): 0.947 and 0.7157 and 0.7389
- mitochondrial translation (fold change relative to negative control) ([2]; CD4, 5µM): 0.8077 and 0.645 and 0.697
- mitochondrial translation (fold change relative to negative control) ([2]; CD4, 10µM): 0.7443 and 0.3992 and 0.6483 and 0.5621
- mitochondrial translation (fold change relative to negative control) ([2]; CD8, 2.5µM): 0.9388 and 0.7432 and 0.8324
- mitochondrial translation (fold change relative to negative control) ([2]; CD8, 5µM): 0.8134 and 0.656 and 0.7756
- mitochondrial translation (fold change relative to negative control) ([2]; CD8, 10µM): 0.7567 and 0.4193 and 0.7571 and 0.5029
- inhibition of mitochondrial translation ([2]; TCR-stimulated CD4+ and CD8+ T cells, 2.5-10 μM): dose-dependent inhibition of mitochondrial translation
